Data on 13 compounds can be found in PubChem BioAssay (NCI).

Test systems include A549 NSCLC; COLO 205 colon; HCC-2998 colon; HOP-92 NSCLC; HS 578T breast; KM12 colon; PC-3 prostate; SNB-19 CNS; SR leukemia; ACHN renal.
Common to all, as to experiment: NCI tumour cell line growth inhibition, 48 h

Several values for one entry are separate records, joined by “and”; a condition that tells them apart may be missing. Equal values may be shown once.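 These data come from cells grown in 96-well plates and exposed to compound for 48 hours at five concentrations. The concentration for 50% growth inhibition is given as GI50. The concentration for full growth arrest is given as TGI.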 Some results are limits rather than exact numbers.

With `CCN(CCCl)c1cc(CN(C)C)cc(NC(=O)c2ccc(C(=O)Nc3ccccc3)cc2)c1`, the TGI in the assay on A549 NSCLC came to 11.9 µM; in the assay with COLO 205 colon it was 2.27 µM; in the assay with HCC-2998 colon, 2.51 µM; with HOP-92 NSCLC, 3.87 µM; in the assay with HS 578T breast, 0.583 µM; in the assay on KM12 colon it was 2.8 µM. For the same compound, the TGI amounted to 1.56 µM in the assay on PC-3 prostate, 8.85 µM in the assay on SNB-19 CNS and 1.16 µM with SR leukemia.
For the compound `COc1ccc2c(c1)c(=O)c1c(NCCCN(C)C)ccc3ncn2c31`, the TGI with A549 NSCLC is 14.5 µM; in the assay with ACHN renal, 16.8 µM; with COLO 205 colon it was 18.6 µM; in the assay on HCC-2998 colon it was 9.86 µM; in the assay on HOP-92 NSCLC, 19.5 µM; in the assay on HS 578T breast, 29.3 µM. Further, the TGI in the assay with KM12 colon is 15.5 µM; in the assay with PC-3 prostate, 15.6 µM; with SNB-19 CNS it was 20.5 µM; in the assay on SR leukemia it was greater than 44.9 µM.
On to `COC(=O)C1(Cc2ccc(C)cc2)Cc2c(C)cccc2C1=O` (stereo not drawn), for which the TGI with A549 NSCLC was determined as 54.5 µM; in the assay with ACHN renal, 76.9 µM; in the assay on COLO 205 colon it was 33.4 µM; in the assay on HCC-2998 colon it was 42.2 µM; in the assay with HOP-92 NSCLC it was 43.9 µM; in the assay with HS 578T breast it was 46.9 µM. Also, the TGI stood at 39.5 µM with KM12 colon, 42 µM with PC-3 prostate, 90.3 µM in the assay with SNB-19 CNS and 50.9 µM in the assay with SR leukemia.
For `CC1OC(OC2C[C@](O)(C(=O)CBr)Cc3c(O)c4c(c(O)c32)C(=O)c2ccccc2C4=O)C(F)C(O)C1O` (stereo partly drawn), the TGI is 30 µM in the assay with A549 NSCLC; 7.08 µM in the assay on ACHN renal; 28.8 µM with COLO 205 colon; greater than 100 µM with HCC-2998 colon; 40.6 µM with HOP-92 NSCLC; greater than 73.4 µM with HS 578T breast. The TGI in the assay on KM12 colon is greater than 84.1 µM; in the assay on PC-3 prostate, greater than 68.2 µM; in the assay with SNB-19 CNS it was greater than 70.5 µM; in the assay with SR leukemia, 3.79 µM.
For the compound `CCOC(=O)c1csc(-c2nc(CCNC(=O)c3ccccc3)sc2Cl)n1`, the TGI in the assay with A549 NSCLC was greater than 100 µM; in the assay on ACHN renal it was greater than 100 µM; in the assay on COLO 205 colon, greater than 100 µM; in the assay with HCC-2998 colon, greater than 100 µM; in the assay on HOP-92 NSCLC, 46.4 µM; in the assay with HS 578T breast, greater than 100 µM. In addition, the TGI in the assay on KM12 colon, in the assay on PC-3 prostate, with SNB-19 CNS and with SR leukemia was greater than 100 µM each time.
On to `COc1cc(OC2OC(CO)C(O)C(O)C2O)c2c(c1)O[C@@H]1[C@H](O)Oc3cc(OC)c(OC)cc3[C@]1(O)C2=O` (stereo partly drawn), for which the TGI with A549 NSCLC, in the assay on ACHN renal, in the assay on COLO 205 colon, in the assay with HCC-2998 colon, with HOP-92 NSCLC and in the assay on HS 578T breast was greater than 25 µM each time. In addition, the TGI in the assay with KM12 colon, in the assay with PC-3 prostate, in the assay on SNB-19 CNS and with SR leukemia was greater than 25 µM throughout.
On to `COc1ncc(C#CC(=O)c2ccccc2)c(OC)n1`, for which the TGI in the assay on A549 NSCLC turned out to be 33.1 µM; in the assay with ACHN renal, 3.7 µM; in the assay with COLO 205 colon, 5.08 µM; in the assay on HCC-2998 colon it was 13.3 µM; in the assay with HOP-92 NSCLC, 4.3 µM; with HS 578T breast, 87 µM. Besides, the TGI stood at 22.9 µM in the assay with KM12 colon, 4.43 µM with PC-3 prostate, 31.6 µM in the assay with SNB-19 CNS and 4.68 µM in the assay on SR leukemia.
For `CC(C)(C)OC(=O)N1CCC(NC(=O)NC2CCN(C(=O)OC(C)(C)C)CC2)CC1`, the TGI in the assay on A549 NSCLC, in the assay on ACHN renal, with HCC-2998 colon, in the assay with HOP-92 NSCLC, in the assay on HS 578T breast and in the assay with KM12 colon was greater than 100 µM in each case. The TGI in the assay with PC-3 prostate, in the assay with SNB-19 CNS and in the assay on SR leukemia was greater than 100 µM in each case.
In the case of `Brc1ccc(C2CC3(c4ccccc4)ON=C(c4ccccc4)N3c3ccccc3S2)cc1` (stereo not drawn), the TGI with A549 NSCLC, in the assay on ACHN renal, in the assay on COLO 205 colon, with HCC-2998 colon, with HOP-92 NSCLC and in the assay on HS 578T breast was greater than 100 µM throughout. For the same compound, the TGI with KM12 colon, with PC-3 prostate, in the assay on SNB-19 CNS and in the assay with SR leukemia was greater than 100 µM throughout.
As to `Nc1nc(Cl)c(C=O)c(NCC2(CO)CCC2)n1`, the TGI is greater than 100 µM in the assay with A549 NSCLC; greater than 100 µM in the assay on ACHN renal; 78.3 µM with COLO 205 colon; 22.9 µM in the assay with HCC-2998 colon; 31.1 µM in the assay with HOP-92 NSCLC; 67.9 µM with HS 578T breast. The TGI in the assay on KM12 colon was greater than 100 µM; in the assay with PC-3 prostate, 34.6 µM; with SNB-19 CNS, 34.4 µM; with SR leukemia it was 43.8 µM.
As for `Fc1cc2nc3n(c2cc1F)C(c1c(Cl)cccc1Cl)SC3` (stereo not drawn), the TGI was found to be 28 µM with A549 NSCLC; 31.7 µM with ACHN renal; 36.3 µM with COLO 205 colon; 29.3 µM with HCC-2998 colon; 30.8 µM in the assay with HOP-92 NSCLC; 53.2 µM with HS 578T breast. The TGI was 26.2 µM with KM12 colon, 31.3 µM in the assay on PC-3 prostate, 27 µM in the assay on SNB-19 CNS and 48.5 µM in the assay on SR leukemia.
As to `COC1C(OC(C)=O)CC(=O)OC(C)C/C=C/C=C\C(O)C(C)CC(CC=O)C1OC1OC(C)C(OC2CC(C)(O)C(OC(=O)CC(C)C)C(C)O2)C(N(C)C)C1O` (stereo not drawn), the TGI in the assay on A549 NSCLC, with ACHN renal, in the assay with COLO 205 colon, with HCC-2998 colon, in the assay with HOP-92 NSCLC and with HS 578T breast was greater than 100 µM throughout. Also, the TGI with KM12 colon was greater than 100 µM; in the assay on PC-3 prostate it was greater than 100 µM; with SNB-19 CNS it was greater than 100 µM; in the assay with SR leukemia it was 69 µM and 38.7 µM. The GI50 in the assay with HS 578T breast is > 100 µM and 42 µM; with KM12 colon it was 37.9 µM and 85.3 µM.
Turning to `CC(=O)OCCCCn1cnc2c(Cl)nc(Nc3ccccc3)nc21`, the TGI in the assay on A549 NSCLC, in the assay with ACHN renal, in the assay with COLO 205 colon, in the assay with HCC-2998 colon, with HS 578T breast and with KM12 colon was greater than 100 µM each time. Further, the TGI in the assay with PC-3 prostate and in the assay with SR leukemia was greater than 100 µM each time.
